Test system: microglia
Assay: CML given intraperitoneally or by oral gavage to young-adult and aged SPF mice; microglia analysed
Format: in vivo, mouse
Experimental: Specific pathogen-free (SPF) and germ-free (GF) housed C57BL/6 mice were analyzed at 6-10 weeks of age (young-adult) and 96-104 weeks of age (aged). Mice of the aged group in the nontargeted metabolomics analysis were 17-18 months old. Except for nontargeted metabolomics and microbiota profiling, where only male mice were used, all groups included mice from both sexes. Mice were housed under a 12-hour light/12-hour dark cycle and temperatures of 18-23° C. with 40-60% humidity, with food and water given ad libitum. To avoid cage effects, mice from at least three different cages per experimental group were analyzed. […] For modulation of CML in aged animals, 18-month-old SPF housed C57BL/6 mice were treated orally every third day for 10 weeks with vehicle (20% hydroxypropyl-p-cyclodextrin in 1× phosphate-buffered saline (PBS)), 10 mg kg^−1 ellagic acid (EA) or 3,000 U kg^−1 intestinal alkaline phosphatase (IAP). To assess in vivo intestinal permeability, tracer fluorescein isothiocyanate (FITC)-labeled dextran (4 kDa: Sigma-Aldrich) was used. Briefly, mice were deprived of food 4 hours before and both food and water 4 hours after oral gavage using 200 μl of 80 mg ml^−1 FITC-dextran. Blood was collected retro-orbitally after 4 hours and fluorescence intensity was measured on fluorescence plates using an excitation wavelength of 493 nm and an emission wavelength of 518 nm. To assess in vivo intestinal permeability to CML, mice were treated with […] CML (0.36 mM). Blood was collected retro-orbitally immediately before and 4 hours after treatment. CML translocated into the circulation was measured by liquid chromatography-mass spectrometry (LC-MS). All animal experiments were approved by the local administration in Germany (Regierungsprasidium Freiburg) and were performed in accordance with the respective national, federal, and institutional regulations and the guidelines of the Federation of European Laboratory Animal Science Associations.
Brains were fixed in 4% PFA, dehydrated in 30% sucrose and embedded in Tissue-Tek OCT compound (Sakura Finetek). Fourteen micrometer-thick cryosections were obtained using a cryostat (SM2000R; Leica Biosystems). FFPE tissue from mouse and human brains was sectioned by a microtome to obtain 5-pm sections. Epitopes were unmasked by heat-induced antigen retrieval at pH 6. Sections were blocked with PBS containing 5% bovine serum albumin (BSA) and permeabilized with 0.5% Triton X-100 in blocking solution. The following primary antibodies were incubated overnight at 4° C.: rabbit anti-Iba-1 (1:500 dilution; WAKO); guinea pig anti-Iba-1 (1:1,000 dilution; Synaptic Systems); anti-iNOS (1:500 dilution; Thermo Fisher Scientific) or anti-CML (1:500; Abcam). Secondary antibodies (Alexa Fluor 488-, 568- or 647-conjugated, 1:500 dilution) were incubated for 2 hours at room temperature. For three dimensional (3D)-reconstruction of microglia, free-floating 30-pm cryosections from brain tissue were labeled for 48 hours with anti-Iba-1 (1:500 dilution) at 4° C., followed by Alexa Fluor 647-conjugated secondary antibody at a dilution of 1:500 overnight at 4° C. […] For 3D-reconstruction of microglia, images were analyzed using Imaris v.8.02 (Bitplane) with at least five cells per mouse. All other images were processed and analyzed with Photoshop CC 2015 (Adobe) or ImageJ v.1.53f (National Institutes of Health). […]

[1] = aged mice, both intraperitoneal and oral gavage routes

`N[C@@H](CCCCNCC(=O)O)C(=O)O` [CML, N^6-carboxymethyllysine] was tested, and the “cellular ROS in microglia” value [1] was “significantly exacerbated the age-related increase in cellular ROS”, the “metabolic function (cellular ATP) in microglia” value [1] was “diminished metabolic function” and the “effect of route of CML administration on percentage of CML+ microglia” value (aged mice, i.p. versus oral gavage) was “no effect”. For the same molecule, the “CML+ microglia in the cortex, intraperitoneal rather than oral gavage” value (young-adult mice) was “more CML^+ microglia in the cortex” and the “effect on cellular ROS and metabolic function in microglia” value (young-adult mice, i.p. versus oral gavage) was “only detectable after intraperitoneal administration”.
